target: T1, ALK5 kinase (Homo sapiens, UniProt P36897); assay: Activity inhibition test on ALK5 enzyme (LanthaScreen Eu binding kinase assay); settings: kinase tracer 178, 60 minutes at room temperature
T1 construct: GST; purchased Thermo Fisher Scientific Solutions
T1 sequence (P36897 34-503): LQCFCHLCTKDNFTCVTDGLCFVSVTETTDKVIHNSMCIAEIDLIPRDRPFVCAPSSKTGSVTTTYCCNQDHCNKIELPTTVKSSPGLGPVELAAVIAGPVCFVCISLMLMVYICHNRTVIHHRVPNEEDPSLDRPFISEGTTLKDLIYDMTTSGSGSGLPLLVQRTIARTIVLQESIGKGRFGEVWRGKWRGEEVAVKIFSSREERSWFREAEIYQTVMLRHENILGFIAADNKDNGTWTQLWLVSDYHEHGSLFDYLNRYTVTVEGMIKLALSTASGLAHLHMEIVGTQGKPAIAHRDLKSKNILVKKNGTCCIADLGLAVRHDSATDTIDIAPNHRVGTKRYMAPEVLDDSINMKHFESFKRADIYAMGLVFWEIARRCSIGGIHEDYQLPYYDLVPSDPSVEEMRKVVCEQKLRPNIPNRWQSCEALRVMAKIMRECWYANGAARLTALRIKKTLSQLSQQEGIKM
Method: For each of the compounds obtained in Examples 1 to 227, inhibitory activity against ALK5 kinase was measured.
For this, a LanthaScreen Eu binding kinase assay method was used, and ALK5 kinase, a kinase buffer, a kinase tracer 178, and a LanthaScreen Eu-GST binding antibody were all purchased from Thermo Fisher Scientific Solutions. Each of the compounds was made into a 10 mM DMSO solution, and diluted by 1/10 to a concentration of 1 μM to 0.0001 μM with an aqueous solution containing 4% DMSO. The test was performed in 384 well plates (well polystyrene low volume round-bottomed plates). First, 5 μL of the diluted compound solution was added, then 5 μL of the kinase/antibody mixture solution was introduced thereto, and 5 μL of the tracer was introduced thereto. Herein, these were added to each well so that the final kinase concentration became 5 nM, the final Eu-GST binding antibody concentration 2 nM, and the kinase tracer 178 concentration 10 nM, and the result was reacted in a stirrer for 60 minutes at room temperature. Then a fluorescence value was measured using a fluorescence meter (molecular device) ([…], 665 nm emission filter). Herein, as for the degree of compound activity to inhibit the kinase reaction, a phosphorylate rate was calculated from 0% to 100% with respect to a control group according to the protocol included in the kit, and a 50% inhibitory concentration (IC50) value was calculated by obtaining the x-axis concentration in the region where 50% activity was inhibited.

IC50 [nM] | Compound
4.6 | 5-([1,2,4]triazolo[1,5-α]pyridin-6-yl)-N-(1-cyclopropyl sulfonyl)-1H-pyrazol-4-yl)-1-(6-methylpyridin-2-yl)-1H-pyrazole-3-carboxyamide [Example 163]
9.7 | 5-([1,2,4]triazolo[1,5-α]pyridin-6-yl)-N-(4-((1,1-dioxidotetrahydrothiophen-3-yl)amino)phenyl)-1-(6-methylpyridin-2-yl)-1H-pyrazole-3-carboxyamide [Example 109]
5 | COc1ccc(NC(=O)c2cc(-c3ccc4ncsc4c3)n(-c3cccc(C)n3)n2)cc1 [Example 1, 5-(benzo[d]thiazol-6-yl)-N-(4-methoxyphenyl)-1-(6-methylpyridin-2-yl)-1H-pyrazole-3-carboxyamide]
4.7 | CCOc1ccc(NC(=O)c2cc(-c3ccc4ncsc4c3)n(-c3cccc(C)n3)n2)cc1 [Example 2, 5-(benzo[d]thiazol-6-yl)-N-(4-ethoxyphenyl)-1-(6-methylpyridin-2-yl)-1H-pyrazole-3-carboxyamide]
12 | Cc1cccc(-n2nc(C(=O)Nc3ccc(OCC4CC4)cc3)cc2-c2ccc3ncsc3c2)n1 [Example 3, 5-(benzo[d]thiazol-6-yl)-N-(4-(cyclopropylmethoxy)phenyl)-1-(6-methylpyridin-2-yl)-1H-pyrazole-3-carboxyamide]
4.4 | COCCOc1ccc(NC(=O)c2cc(-c3ccc4ncsc4c3)n(-c3cccc(C)n3)n2)cc1 [Example 4, 5-(benzo[d]thiazol-6-yl)-N-(4-(2-methoxyethoxy)phenyl)-1-(6-methylpyridin-2-yl)-1H-pyrazole-3-carboxyamide]
10 to 100 | Cc1cccc(-n2nc(C(=O)Nc3ccc(OC(F)(F)F)cc3)cc2-c2ccc3ncsc3c2)n1 [Example 5, 5-(benzo[d]thiazol-6-yl)-1-(6-methylpyridin-2-yl)-N-(4-(trifluoromethoxy)phenyl)-1H-pyrazole-3-carboxyamide]
11 | Cc1cccc(-n2nc(C(=O)Nc3ccc(OCc4ccccc4)cc3)cc2-c2ccc3ncsc3c2)n1 [Example 6, 5-(benzo[d]thiazol-6-yl)-N-(4-(benzyloxy)phenyl)-1-(6-methylpyridin-2-yl)-1H-pyrazole-3-carboxyamide]
< 10 | Cc1cccc(-n2nc(C(=O)Nc3ccc4c(c3)OCO4)cc2-c2ccc3ncsc3c2)n1 [Example 7, N-(benzo[d][1,3]dioxol-5-yl)-5-(benzo[d]thiazol-6-yl)-1-(6-methylpyridin-2-yl)-1-H-pyrazole-3-carboxyamide]
4.7 | COc1cc(NC(=O)c2cc(-c3ccc4ncsc4c3)n(-c3cccc(C)n3)n2)ccc1F [Example 8, 5-(benzo[d]thiazol-6-yl)-N-(4-fluoro-3-methoxyphenyl)-1-(6-methylpyridin-2-yl)-1H-pyrazole-3-carboxyamide]
19 | COc1ccc(NC(=O)c2cc(-c3ccc4ncsc4c3)n(-c3cccc(C)n3)n2)c(F)c1 [Example 9, 5-(benzo[d]thiazol-6-yl)-N-(2-fluoro-4-methoxyphenyl)-1-(6-methylpyridin-2-yl)-1H-pyrazole-3-carboxyamide]
10 | COc1ccc(NC(=O)c2cc(-c3ccc4ncsc4c3)n(-c3cccc(C)n3)n2)cc1F [Example 10, 5-(benzo[d]thiazol-6-yl)-N-(3-fluoro-4-methoxyphenyl)-1-(6-methylpyridin-2-yl)-1H-pyrazole-3-carboxyamide]
2.2 | Cc1cccc(-n2nc(C(=O)Nc3cccc(N)c3)cc2-c2ccc3ncsc3c2)n1 [Example 11, 5-(benzo[d]thiazol-6-yl)-N-(3-aminophenyl)-1-(6-methylpyridin-2-yl)-1H-pyrazole-3-carboxyamide]
6.1 | CNc1cccc(NC(=O)c2cc(-c3ccc4ncsc4c3)n(-c3cccc(C)n3)n2)c1 [Example 12, 5-(benzo[d]thiazol-6-yl)-N-(3-(methylamino)phenyl)-1-(6-methylpyridin-2-yl)-1H-pyrazole-3-carboxyamide]
10 to 100 | Cc1cccc(-n2nc(C(=O)Nc3ccc(N(C)C)cc3)cc2-c2ccc3ncsc3c2)n1 [Example 13, 5-(benzo[d]thiazol-6-yl)-N-(4-(dimethylamino)phenyl)-1-(6-methylpyridin-2-yl)-1H-pyrazole-3-carboxyamide]
17 | Cc1cccc(-n2nc(C(=O)Nc3ccc([N+](=O)[O-])cc3)cc2-c2ccc3ncsc3c2)n1 [Example 14, 5-(benzo[d]thiazol-6-yl)-1-(6-methylpyridin-2-yl)-N-(4-nitrophenyl)-1H-pyrazole-3-carboxyamide]
6.4 | Cc1cccc(-n2nc(C(=O)Nc3ccc(N(C)CCN(C)C)cc3)cc2-c2ccc3ncsc3c2)n1 [Example 15, 5-(benzo[d]thiazol-6-yl)-N-(4-((2-(dimethylamino)ethyl)(methyl)amino)phenyl)-1-(6-methylpyridin-2-yl)-1H-pyrazole-3-carboxyamide]
2.3 | Cc1cccc(-n2nc(C(=O)Nc3ccc(N4CC[C@H](N(C)C)C4)cc3)cc2-c2ccc3ncsc3c2)n1 [Example 16, 5-(benzo[d]thiazol-6-yl)-N-(4-(3-(dimethylamino)pyrrolidin-1-yl)phenyl)-1-(6-methylpyridin-2-yl)-1H-pyrazole-3-carboxyamide]
14 | Cc1cccc(-n2nc(C(=O)Nc3ccc(N4CC5CCCNC5C4)c(Cl)c3)cc2-c2ccc3ncsc3c2)n1 (stereo not drawn) [Example 17, 5-(benzo[d]thiazol-6-yl)-N-(3-chloro-4-(octahydro-6H-pyrrolo[3,4-b]pyridin-6-yl)phenyl)-1-(6-methylpyridin-2-yl)-1H-pyrazole-3-carboxyamide]
10 to 100 | Cc1cccc(-n2nc(C(=O)Nc3ccccc3)cc2-c2ccc3ncsc3c2)n1 [Example 18, 5-(benzo[d]thiazol-6-yl)-1-(6-methylpyridin-2-yl)-N-phenyl-1H-pyrazole-3-carboxyamide]
10 to 100 | Cc1cccc(NC(=O)c2cc(-c3ccc4ncsc4c3)n(-c3cccc(C)n3)n2)c1 [Example 19, 5-(benzo[d]thiazol-6-yl)-N-(3-tolyl)-1-(6-methylpyridin-2-yl)-1H-pyrazole-3-carboxyamide]
10 to 100 | C=Cc1cccc(NC(=O)c2cc(-c3ccc4ncsc4c3)n(-c3cccc(C)n3)n2)c1 [Example 20, 5-(benzo[d]thiazol-6-yl)-1-(6-methylpyridin-2-yl)-N-(3-vinylphenyl)-1H-pyrazole-3-carboxyamide]
~100 | Cc1cccc(-n2nc(C(=O)Nc3cccc(C(F)(F)F)c3)cc2-c2ccc3ncsc3c2)n1 [Example 21, 5-(benzo[d]thiazol-6-yl)-N-(3-(trifluoromethyl)phenyl)-1-(6-methylpyridin-2-yl)-1H-pyrazole-3-carboxyamide]
10 to 100 | Cc1cccc(-n2nc(C(=O)Nc3cccc(C#N)c3)cc2-c2ccc3ncsc3c2)n1 [Example 22]
~10 | CC(=O)c1cccc(NC(=O)c2cc(-c3ccc4ncsc4c3)n(-c3cccc(C)n3)n2)c1 [Example 23, 5-(benzo[d]thiazol-6-yl)-N-(3-acetylphenyl)-1-(6-methylpyridin-2-yl)-1H-pyrazole-3-carboxyamide]
~100 | CCOC(=O)c1cccc(NC(=O)c2cc(-c3ccc4ncsc4c3)n(-c3cccc(C)n3)n2)c1 [Example 24, ethyl 3-(5-(benzo[d]thiazol-6-yl)-1-(6-methylpyridin-2-yl)-1H-pyrazole-3-carboxyamido)benzoate]
< 10 | CNC(=O)c1ccc(NC(=O)c2cc(-c3ccc4ncsc4c3)n(-c3cccc(C)n3)n2)cc1 [Example 25, 5-(benzo[d]thiazol-6-yl)-N-(4-(methylcarbamoyl)phenyl)-1-(6-methylpyridin-2-yl)-1H-pyrazole-3-carboxyamide]
10 to 100 | CC(=O)Nc1ccc(NC(=O)c2cc(-c3ccc4ncsc4c3)n(-c3cccc(C)n3)n2)cc1 [Example 26, 5-(benzo[d]thiazol-6-yl)-N-(4-acetamidophenyl)-1-(6-methylpyridin-2-yl)-1H-pyrazole-3-carboxyamide]
6.2 | Cc1cccc(-n2nc(C(=O)Nc3ccccc3F)cc2-c2ccc3ncsc3c2)n1 [Example 27, 5-(benzo[d]thiazol-6-yl)-N-(2-fluorophenyl)-1-(6-methylpyridin-2-yl)-1H-pyrazole-3-carboxyamide]
4.5 | Cc1cccc(-n2nc(C(=O)Nc3cccc(F)c3)cc2-c2ccc3ncsc3c2)n1 [Example 28, 5-(benzo[d]thiazol-6-yl)-N-(3-fluorophenyl)-1-(6-methylpyridin-2-yl)-1H-pyrazole-3-carboxyamide]

Reference: patent US10954232B2, “Pyrazole derivative as ALK5 inhibitor and uses thereof” (HANMI PHARMACEUTICAL CO., LTD., priority 2016, dated 2021)
